From the NIST ThermoML archive (doi:10.1021/je900709n) come the findings set out here.

Usually viscosity stands for the resistance of a fluid to flow. The mass density is the mass of a sample divided by its volume.

Data set [1] can be described thus: φn = volume fraction of the nth substance listed. Conditions: 101 kPa, Liquid; for viscosity: Capillary tube (Ostwald / Ubbelohde) method; for mass density: Pycnometric method.
For data set [2] the following is noted: Liquid.

Numbers after ± are expanded uncertainties.

For `C1COCO1` [1,3-dioxolane] + O, the viscosity amounted to 0.9716 ± 0.19 mPa·s in data set [1] (298.15 K, φ2 = 0.3); 1.357 ± 0.27 mPa·s in data set [1] (298.15 K, φ2 = 0.6); 0.9415 ± 0.19 mPa·s in data set [1] (298.15 K, φ2 = 0.9); 0.9314 ± 0.19 mPa·s in data set [1] (308.15 K, φ2 = 0.3); 1.133 ± 0.23 mPa·s in data set [1] (308.15 K, φ2 = 0.6); 0.822 ± 0.16 mPa·s in data set [1] (308.15 K, φ2 = 0.9). In addition, the mass density was found to be 1049.2 ± 6 kg/m3 in data set [1] (298.15 K, φ2 = 0.3); 1039.1 ± 6 kg/m3 in data set [1] (298.15 K, φ2 = 0.6); 1009.2 ± 6 kg/m3 in data set [1] (298.15 K, φ2 = 0.9); 1041.1 ± 6 kg/m3 in data set [1] (308.15 K, φ2 = 0.3); 1030.7 ± 6 kg/m3 in data set [1] (308.15 K, φ2 = 0.6); 1003.3 ± 6 kg/m3 in data set [1] (308.15 K, φ2 = 0.9).
With `C1COCO1` [1,3-dioxolane], in data set [2] (298.15 K, 101.33 kPa, Capillary tube (Ostwald / Ubbelohde) method), the viscosity is listed as 0.575 ± 0.012 mPa·s. Further, the mass density in data set [2] (298.15 K, 101.33 kPa, Pycnometric method) was 1058.6 ± 1.2 kg/m3. In data set [2] (Distillation), the Normal boiling temperature is 75 ± 1 °C.
